Data published in ChEMBL document CHEMBL1153689, “Conversion of the phytoestrogen coumestrol into a selective estrogen receptor modulator (SERM) by attachment of an amine-containing sidechain” (Bioorg Med Chem Lett, 1996).

System: MCF7
Assay: Inhibition of MCF-7 cell proliferation
Type: functional, cell-based
Settings: Homo sapiens

## Oc1ccc2c(c1)OC(c1ccc(OCCN3CCCCC3)cc1)c1c-2oc2cc(O)ccc12 (stereo unspecified)
  EC50: 40 nM
